Here are results for three compounds from PMC5902437, “Structural studies on radiopharmaceutical DOTA-minigastrin analogue (CP04) complexes and their interaction with CCK2 receptor” (EJNMMI Research, 2018).

One experiment has as its target T1, human CCK-2R (Homo sapiens, UniProt P32239).
T1 construct: expressed in transfected cells; host or cells: A431 human epidermoid carcinoma cells, stably transfected (gift of Prof. Luigi Aloj)
T1 sequence (P32239 1-447): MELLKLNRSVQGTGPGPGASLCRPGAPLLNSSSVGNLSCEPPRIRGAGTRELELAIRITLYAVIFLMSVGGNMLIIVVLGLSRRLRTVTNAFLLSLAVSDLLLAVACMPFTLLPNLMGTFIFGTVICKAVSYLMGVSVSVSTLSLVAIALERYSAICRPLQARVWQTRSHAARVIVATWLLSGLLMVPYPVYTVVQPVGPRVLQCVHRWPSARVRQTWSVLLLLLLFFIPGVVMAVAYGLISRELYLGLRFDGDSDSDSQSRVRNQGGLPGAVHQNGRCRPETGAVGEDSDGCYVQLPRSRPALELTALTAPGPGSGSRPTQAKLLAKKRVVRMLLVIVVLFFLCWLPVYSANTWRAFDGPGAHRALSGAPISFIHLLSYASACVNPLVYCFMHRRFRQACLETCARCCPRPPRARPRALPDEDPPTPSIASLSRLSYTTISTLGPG
Nature of the experiment: Competition binding assay with [^90Y]Y-CP04 as competitive radioligand in A431-CCK2R(+) cells. The conditions noted are these: 0.5 mln per well, radioligand [^90Y]Y-CP04 0.24 pmol per well, 1 h at 37 °C, competitor 10^-6–10^-13 M, cell-associated radioactivity by gamma counter, mean ± SD, n = 3 experiments in triplicate, read-out: apparent 50% inhibitory concentration (IC50) for hCCK-2R. How it is done:
The A431 human epidermoid carcinoma cell line stably transfected with the human CCK2R (A431-CCK2R(+)) and mock transfected with an empty vector alone (A431-CCK2R(−)) were kindly provided by Prof. Luigi Aloj.
The cells were cultured in Dulbecco’s modified Eagle’s medium (DMEM) supplemented with 10% of heat-inactivated fetal bovine serum and antibiotics (penicillin 100 U/mL and streptomycin 100 μg/mL) and cultivated at 37 °C in 5% CO2.
The binding affinity (the apparent 50% inhibitory concentration (IC50)) of [^natGa]Ga-CP04 and [^natLu]Lu-CP04 complexes for CCK2 receptor was determined in A431-CCK2R(+) cell line using [^90Y]Y-CP04 as a competitive radioligand according to the method used by Roosenburg et al.. [^90Y]Y-CP04 was obtained with a molar activity of 2.05 GBq/μmol calculated at the time of experiment and 98% radiochemical purity as determined by radio HPLC method. Human epidermoid carcinoma (A431-CCK2(+)) cells were subcultured overnight in 12-well plates in concentration of 0.5 mln per well. Before the experiments, the cells were washed with DMEM medium and then [^90Y]Y-labeled CP04 (2.05 GBq/μmol) was added to the cells in amount of 0.24 pmol per well (ca. 80,000 cpm) and incubated for 1 h at 37 °C with increasing concentrations (10^−6–10^−13 M) of the Ga and Lu complexes of CP04 peptide. […]

The subject of another experiment is CCK-2R. The conditions noted are these: literature SAR of CCK/gastrin derivatives; cited from earlier work. The source says:
Table 3 SAR data from CCK/gastrin derivatives and their correspondence to our model | column: SAR data from CCK/gastrin derivatives

Turning to `CSCC[C@H](NC(=O)[C@H](Cc1c[nH]c2ccccc12)NC(=O)CNC(=O)[C@H](Cc1ccc(O)cc1)NC(=O)[C@H](C)NC(=O)[C@@H](CCC(=O)O)NC(=O)[C@@H](CCC(=O)O)NC(=O)[C@@H](CCC(=O)O)NC(=O)[C@@H](CCC(=O)O)NC(=O)[C@@H](CCC(=O)O)NC(=O)[C@@H](CCC(=O)O)NC(=O)CN1CCN(CC(=O)O)CCN(CC(=O)O)CCN(CC(=O)O)CC1)C(=O)N[C@@H](CC(=O)O)C(=O)N[C@@H](Cc1ccccc1)C(N)=O` [[^natGa]Ga-CP04, metal not drawn], at human CCK-2R, the IC50 amounted to 1.15 ± 0.39 nM.

As to `CSCC[C@H](NC(=O)[C@H](Cc1c[nH]c2ccccc12)NC(=O)CNC(=O)[C@H](Cc1ccc(O)cc1)NC(=O)[C@H](C)NC(=O)[C@@H](CCC(=O)O)NC(=O)[C@@H](CCC(=O)O)NC(=O)[C@@H](CCC(=O)O)NC(=O)[C@@H](CCC(=O)O)NC(=O)[C@@H](CCC(=O)O)NC(=O)[C@@H](CCC(=O)O)NC(=O)CN1CCN(CC(=O)O)CCN(CC(=O)O)CCN(CC(=O)O)CC1)C(=O)N[C@@H](CC(=O)O)C(=O)N[C@@H](Cc1ccccc1)C(N)=O` [[^natLu]Lu-CP04, metal not drawn], the IC50 at human CCK-2R is 1.02 ± 0.28 nM. With “H-Trp-Met-Asp-Phe-NH2 [CCK-4, C-terminal tetrapeptide of CCK]”, the “binding to the receptor (SAR data in words)” value in the experiment with CCK-2R is 1. C-terminal sequence in cholecystokinins and gastrins is a condition necessary and sufficient for high affinity towards the receptor 2. Even a fragment as small as a tetrapeptide H-Trp-Met-Asp-Phe-NH2 (CCK-4) exhibits relatively good binding.
